The target in test [1] is T1, Prostaglandin G/H synthase 1 (Ovis aries, UniProt P05979).
T1 sequence (P05979 whole entry): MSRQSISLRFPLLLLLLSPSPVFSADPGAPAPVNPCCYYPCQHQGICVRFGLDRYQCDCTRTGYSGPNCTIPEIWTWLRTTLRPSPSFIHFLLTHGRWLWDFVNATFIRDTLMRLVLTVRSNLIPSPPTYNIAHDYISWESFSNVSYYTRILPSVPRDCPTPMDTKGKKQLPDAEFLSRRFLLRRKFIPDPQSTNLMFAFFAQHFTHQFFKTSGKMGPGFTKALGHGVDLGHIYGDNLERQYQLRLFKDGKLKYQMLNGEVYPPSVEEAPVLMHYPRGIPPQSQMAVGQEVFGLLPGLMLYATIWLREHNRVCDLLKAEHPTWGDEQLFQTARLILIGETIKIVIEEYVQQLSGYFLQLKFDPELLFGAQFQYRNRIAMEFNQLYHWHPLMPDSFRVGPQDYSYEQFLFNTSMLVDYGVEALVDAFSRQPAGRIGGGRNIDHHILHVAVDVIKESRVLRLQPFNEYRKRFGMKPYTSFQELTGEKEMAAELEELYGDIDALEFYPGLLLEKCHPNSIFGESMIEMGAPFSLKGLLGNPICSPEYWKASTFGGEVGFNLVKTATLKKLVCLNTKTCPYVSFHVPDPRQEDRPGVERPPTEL

The target of test [2] is T2, Prostaglandin G/H synthase 2 (Homo sapiens, UniProt P35354).
T2 sequence (P35354 whole entry): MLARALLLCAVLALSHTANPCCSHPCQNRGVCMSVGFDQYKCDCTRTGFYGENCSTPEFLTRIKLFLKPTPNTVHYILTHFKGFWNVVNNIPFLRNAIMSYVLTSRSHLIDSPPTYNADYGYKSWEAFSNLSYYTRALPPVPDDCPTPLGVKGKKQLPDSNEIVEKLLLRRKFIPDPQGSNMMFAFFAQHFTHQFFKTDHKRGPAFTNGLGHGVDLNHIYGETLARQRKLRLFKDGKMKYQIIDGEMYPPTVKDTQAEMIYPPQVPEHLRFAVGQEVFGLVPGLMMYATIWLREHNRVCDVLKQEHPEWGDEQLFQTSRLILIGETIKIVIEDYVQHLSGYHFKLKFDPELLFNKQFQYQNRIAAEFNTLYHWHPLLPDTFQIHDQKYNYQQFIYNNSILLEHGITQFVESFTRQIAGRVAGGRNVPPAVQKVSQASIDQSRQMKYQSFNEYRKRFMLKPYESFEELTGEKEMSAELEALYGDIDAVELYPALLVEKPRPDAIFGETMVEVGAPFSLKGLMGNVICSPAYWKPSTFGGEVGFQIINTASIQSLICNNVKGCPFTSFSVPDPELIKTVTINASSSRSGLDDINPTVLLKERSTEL

As usually defined, the IC50 is the concentration needed to halve the response being measured. For the compound `Cc1ccc(Cl)c(Nc2ccccc2C(=O)NCC(=O)O)c1Cl` [2-({2-[(2,6-dichloro-3-methylphenyl)amino]phenyl}formamido)acetic acid], the concentration for half-maximal inhibition (IC50) in test [1] amounted to 300 nM; in test [2] it was 400 nM.

These data come from BindingDB's records for doi:10.1073/pnas.97.2.925 (Vanderbilt University School of Medicine, 2000).
